Tests used:
Assay in all cases: relative viability (nuclei count vs DMSO), 5 days (fraction); higher = more cells survive
[1] = compound: C/C(=N\NC(=S)N1CCC1)/C2=CC=CC=N2 + CC(=O)c1c(C)c2cnc(Nc3ccc(N4CCNCC4)cn3)nc2n(C2CCCC2)c1=O [Palbociclib] (partner 0.5 µM)
Method in brief: (§1)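 Medians of duplicate plates are given as relative viability. That measure is the nuclei count in treated wells divided by the count in vehicle wells. Counts were taken on 4× images of lung cancer cell lines in 1536-well plates, 5 days after pin-tool dosing the day after seeding with one drug alone or a fixed anchor-drug dose plus five library-drug doses (not always all listed) in √10 steps.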

[2] = compound: C/C(=N\NC(=S)N1CCC1)/C2=CC=CC=N2 + N=C(N)NC(=N)NCCc1ccccc1 [Phenformin] (partner 250 µM)
Method in brief: as §1

[3] = compound: C/C(=N\NC(=S)N1CCC1)/C2=CC=CC=N2 + CS(=O)(=O)N1CCN(Cc2cc3nc(-c4cccc5[nH]ncc45)nc(N4CCOCC4)c3s2)CC1 [Pictilisib] (partner 1 µM)
Method in brief: as §1

[4] = compound: C/C(=N\NC(=S)N1CCC1)/C2=CC=CC=N2 + Nc1ncn([C@H]2C[C@H](O)[C@@H](CO)O2)c(=O)n1 [Decitabine] (partner 2 µM)
Method in brief: as §1

Cell Line | relative viability ([1]; first compound 0.05 µM) | relative viability ([1]; first compound 0.1581 µM) | relative viability ([1]; first compound 0.5 µM) | relative viability ([1]; first compound 1.581 µM) | relative viability ([1]; first compound 5 µM) | relative viability ([2]; first compound 0.05 µM) | relative viability ([2]; first compound 0.1581 µM) | relative viability ([2]; first compound 0.5 µM) | relative viability ([2]; first compound 1.581 µM) | relative viability ([2]; first compound 5 µM) | relative viability ([3]; first compound 0.05 µM) | relative viability ([3]; first compound 0.1581 µM) | relative viability ([3]; first compound 0.5 µM) | relative viability ([3]; first compound 1.581 µM) | relative viability ([3]; first compound 5 µM) | relative viability ([4]; first compound 0.05 µM) | relative viability ([4]; first compound 0.1581 µM) | relative viability ([4]; first compound 0.5 µM) | relative viability ([4]; first compound 1.581 µM) | relative viability ([4]; first compound 5 µM)
HCC-827 | 0.272 | 0.229 | 0.173 | 0.166 | 0.144 | 0.222 | 0.239 | 0.201 | 0.173 | 0.175 | 0.6 | 0.541 | 0.322 | 0.382 | 0.388 | 0.253 | 0.244 | 0.237 | 0.182 | 0.185
HARA | 0.188 | 0.133 | 0.233 | 0.139 | 0.164 | 0.0726 | 0.0701 | 0.0872 | 0.047 | 0.0649 | 0.0923 | 0.0752 | 0.0784 | 0.0856 | 0.0671 | 0.229 | 0.168 | 0.153 | 0.242 | 0.164
HCC-366 | 0.065 | 0.0358 | 0.0237 | 0.0228 | 0.026 | 0.0354 | 0.0736 | 0.0328 | 0.0375 | 0.0286 | 0.0297 | 0.0246 | 0.029 | 0.0344 | 0.0355 | 0.103 | 0.0378 | 0.0365 | 0.035 | 0.0275
NCI-H322M | 0.345 | 0.382 | 0.488 | 0.379 | 0.439 | 0.332 | 0.375 | 0.249 | 0.255 | 0.311 | 0.23 | 0.38 | 0.275 | 0.263 | 0.287 | 0.353 | 0.413 | 0.418 | 0.47 | 0.455
NCI-H2347 | 0.323 | 0.305 | 0.282 | 0.277 | 0.29 | 0.159 | 0.195 | 0.202 | 0.208 | 0.273 | 0.275 | 0.311 | 0.286 | 0.275 | 0.253 | 0.363 | 0.335 | 0.34 | 0.349 | 0.367
NCI-H1975 | 0.105 | 0.106 | 0.105 | 0.11 | 0.131 | 0.187 | 0.187 | 0.159 | 0.12 | 0.133 | 0.123 | 0.136 | 0.127 | 0.131 | 0.136 | 0.151 | 0.18 | 0.154 | 0.156 | 0.184
UMC-11 | 0.155 | 0.139 | 0.238 | 0.213 | 0.169 | 0.202 | 0.19 | 0.207 | 0.185 | 0.168 | 0.19 | 0.174 | 0.189 | 0.144 | 0.133 | 0.446 | 0.2 | 0.261 | 0.273 | 0.2
ABC-1 | 0.344 | 0.412 | 0.328 | 0.239 | 0.275 | 0.196 | 0.203 | 0.222 | 0.202 | 0.14 | 0.305 | 0.334 | 0.24 | 0.222 | 0.269 | 0.343 | 0.373 | 0.385 | 0.381 | 0.287
A-427 | 0.194 | 0.224 | 0.205 | 0.174 | 0.181 | 0.13 | 0.142 | 0.134 | 0.121 | 0.138 | 0.109 | 0.142 | 0.129 | 0.116 | 0.125 | 0.182 | 0.214 | 0.194 | 0.171 | 0.17
